Measured values reported in PMC5445283, “Selection and characterization of alanine racemase inhibitors against Aeromonas hydrophila” (BMC Microbiology, 2017).
≈ marks a conversion by molar mass, not a printed value. Where “and” joins values, the source holds several entries; their conditions need not be identical. Equal entries are not always repeated. Entries after “also recorded” stand apart in the source; their conditions may differ. Structures can show the parent of a compound that is named as a salt. Where two headings read alike, the source gives them in different places. Blank lines part the entries; values can stand above or below the molecule they belong to.

Tests used:
A. hydrophila Δalr-2 = assay type: cell-based, Aeromonas hydrophila; settings: for MIC against A.hydrophila Δalr-2: average values with standard deviations in parentheses, NC: non calculable as the values are too high
Protocol: A. hydrophila HBNUAh01 isolated from infected Paralichthys olivaceus and an A. hydrophila alr-2 knockout mutant were used in this study. Escherichia coli BL-21(DE3) cells were used for protein expression. The pET-25b-alr2 plasmid was used for protein expression. The A. hydrophila and E. coli strains were cultured in Luria-Bertani (LB) medium at 30 °C and 37 °C, respectively. For plasmid selection, 0.5 mmol/l ampicillin (AMP, Sigma–Aldrich Inc., USA) was added to the LB medium for experiments with E. coli.
(§1) A. hydrophila was cultured for 18 h, washed with PBS (pH 7.2), and adjusted to an OD600 value of 0.5. Next, the culture was diluted tenfold five times, and aliquots were spread on LB agar in triplicate to determine the number of colony-forming units (CFU)/ml.
(§2) The minimum inhibitory concentration (MIC) of the chemical compounds against A. hydrophila was determined using the microdilution method in accordance with the guidelines of the Clinical and Laboratory Standards Institute, document M31-A3 [16], following the method described by Dal Pozzo et al.. Compounds were diluted in DMSO at concentrations of 80, 40, 20, or 10 μg/ml. Appropriate controls were included in all tests. DCS is a naturally occurring antibacterial compound that targets alanine racemase involved in peptidoglycan synthesis. DCS was used as a positive control ([…]), DMSO solvent was used as a negative control for growth inhibition and DMSO alone was used as the blank control. All tests were performed in triplicate. The inoculum was prepared in LB culture medium (1 × 10^8 CFU/ml; OD600 = 0.3) and cultured at 30 °C/20 h. The inoculum (100 μl; 1 × 10^5 CFU) was added to each well containing compounds. The microplates were incubated at 30 °C for 20 h.

[1] = tested on: D-amino acid oxidase (DAAO) and horseradish peroxidase (HRP); assay: Assay interference counter screen (second step of the assay); assay type: biochemical; settings: for inhibition of second-step enzymes / assay interference, in words: HRP and DAAO, within a concentration of 50 μM; for IC50: DAAO/HRP reaction, 10 μM D-ala as substrate, read-out: IC50 on the enzymes in the second step (counter screen)
Protocol: To eliminate the inhibitory effects of the compounds on DAAO and HRP, a counter screening assay was performed as described above. The first-step assay mixtures without alanine racemase and L-alanine were added to each test well, followed by the addition of a twofold dilution series (in DMSO) of the inhibitors to the sample test wells, and finally, the addition of DMSO to the blank control wells. Then, DMSO was added to each well to obtain reaction mixtures at a final volume of 100 μl.
Second, the D-amino acid oxidase reaction mixture was prepared using 10 μM D-ala as the substrate. The control and control blank for the enzyme assay was prepared with or without 10 μM D-ala and absorbance was measured at 550 nm.

Caco-2 cells = tested on: Caco-2 cells; parameters: method as in PMID 22146584; settings: cited from earlier work
alanine racemase Alr-2 [2] = molecular target: T1, alanine racemase Alr-2 (Aeromonas hydrophila, UniProt A0KL98); assay: biochemical
Protocol: Alanine racemase activity was measured at room temperature in the L → D direction using a spectrophotometric assay. The assay was modified by varying the volume to 100 μl and dividing it into two steps (Fig. 1).
The first step (F1) is the production of the D-form amino acids. The optimized enzyme assay reaction mixture consisted of 10 μM PLP, 12.5 mM of NaHCO3-NaOH buffer (pH 11), and 50 mM L-alanine and alanine racemase. A total of 100 μl of this reaction mixture was added to the wells of a 96-well plate. After incubation at 35 °C for 10 min, the reaction was terminated by adding 12.5 μl of 2 M HCl, and the incubation was continued for 2 min on ice. The reaction mixture was centrifuged at 10,000 RPM, for 10 min at 4 °C, and 10 μl of 2 M NaOH was added to neutralize the reaction mixture. The second step (F2) is the conversion of D-alanine to α-keto acids using D-amino acid oxidase (DAAO). The formation of H2O2 from this reaction can be quantified using horseradish peroxidase (HRP) at 550 nm. The DAAO reaction mixture contained 200 mM of Tris-HCl (pH 8.0), 0.1 mg/ml 4-aminoantipyrine (AAP), 0.1 mg/ml N-ethyl-N-(2-hydroxy-3-sulfopropyl)-m-toluidine sodium salt (TOOS), 2 units of HRP, 0.1 unit of DAAO and D-form amino acid solution in a final volume of 100 μl. The negative control for the enzyme assay was prepared using the same procedure but without enzyme. After incubating at 37 °C for 30 min, the absorbance was measured at 550 nm using a Spectra MAX 190 microplate reader (Molecular Devices Corp., USA). One unit (U) of enzyme was defined as the amount of purified enzyme that catalyzed the formation of 1 μmol of D-alanine from L-alanine per minute.
Each well (sample, control, and their blanks) contained the screening assay reaction mixture of 10 μM PLP and 12.5 mM NaHCO3-NaOH buffer (pH 11). Next, 4 μl of test substance (small molecular compounds or natural product extracts) was added to the sample and sample blank test tubes. Finally, […] alanine racemase was added to the sample and control test tubes while the same volume of DMSO was added to the sample blank and control blank test tubes. After incubation at 4 °C for 30 min, 50 mM L-alanine was added to the sample and control test wells while DMSO was added to the sample blank and control blank test wells to obtain a final volume of 100 μl. The control and control blank were defined as 100% and 0% of enzyme activity. The reaction was then carried out as described for the alanine racemase assay. The assay is divided into two steps: absorbance was measured at 550 nm at the end of the first (F1), and second (F2) steps and ΔF was defined as F2-F1. Inhibition activity was calculated from the following equation.
Fourfold dilution series (in DMSO) were prepared for all the compounds, and the solutions were added to the wells of a 96-well plate to yield the final inhibitory concentrations. Each concentration was tested in triplicate. The substrate was added after incubation for 30 min, and the fluorescence intensity was measured after the reaction. The positive control (D-cycloserine, DCS) was diluted in DMSO, and the negative control was prepared without adding an inhibitor to the control wells of each plate. Percentage inhibition at each inhibitor concentration was calculated with respect to the negative control. The results were analyzed using the SPSS 16.0 IBM modeler to calculate the compound concentration that causes 50% inhibition (IC50).

A. hydrophila = assay: Antimicrobial susceptibility test, MIC by microdilution; assay type: cell-based, Aeromonas hydrophila; settings: for MIC: Aeromonas hydrophila, read-out: MIC against A.hydrophila; for growth inhibition of A. hydrophila, in words: screen for antimicrobial activity
Protocol: as §1, §2

HeLa cells = assay type: cell-based; settings: for cytotoxicity, in words: MTT assay, HeLa / mammalian cells; for TC50, cytotoxicity in HeLa cells: MTT, 48 h exposure, average values with standard deviations, NC: non calculable as the values are too high
Protocol: This assay was performed in a 96-well plate format and used HeLa cells. The cell viability was determined using 3-(4,5-dimethyl-2-thiazole)-2,5-diphenyl-2H-tetrazolium bromide (MTT, Sigma-Aldrich). Cells were seeded in culture medium in microplates (4000 cells/well) and incubated at 37 °C for 24 h before drug treatments. […] The cells were exposed to the compounds for 48 h. At the end of the incubation, the cells were exposed to MTT (0.5 mg/ml) at 37 °C for 4 h. The reduced crystals were dissolved in DMSO, and absorbance was detected at 490 nm. The […] were set as zero absorbance. The percentage of cell survival was calculated using the background-corrected absorbance as follows: Cell survival (%) = (ODexperiment/ODcontrol) × 100. The data represent the mean and standard deviation from triplicate determination.

alanine racemase Alr-2 [3] = molecular target: T1, alanine racemase Alr-2; assay: Kinetics of alanine racemase inhibition (Lineweaver-Burk); assay type: biochemical; settings: for Ki: Lineweaver-Burk analysis, read-out: inhibition constant Ki; for type (mode) of inhibition: Lineweaver-Burk profile
Protocol: The mode of inhibition of the enzyme by the compounds was determined as follows. The experiment was composed of three sets of reactions in which each set consisted of four concentrations of substrate in the presence of fixed amounts of alanine racemase, and three different concentrations of inhibitors were used. For homogentisic acid and hydroquinone, 0, 0.02 and 0.04 mg/ml were used. The reactions were made as described. The amount of product was determined spectrophotometrically and subsequently the standard curve was used to obtain reaction velocities. A double reciprocal plot (1/V versus 1/[S]), where V is reaction velocity and [S] is substrate concentration, was plotted. The type (mode) of inhibition of enzyme activity by the compounds was determined by analysis of the double reciprocal (Lineweaver-Burk) plot using Michaelis-Menten kinetics. The inhibition constant (K i) of the inhibitors was determined.

[4] = average values with standard deviations in parentheses, NC: non calculable as the values are too high
[5] = average values with standard deviations in parentheses, read-out: IC50 against Alr-2 with PLP

T1 sequence (A0KL98 entry or part of it): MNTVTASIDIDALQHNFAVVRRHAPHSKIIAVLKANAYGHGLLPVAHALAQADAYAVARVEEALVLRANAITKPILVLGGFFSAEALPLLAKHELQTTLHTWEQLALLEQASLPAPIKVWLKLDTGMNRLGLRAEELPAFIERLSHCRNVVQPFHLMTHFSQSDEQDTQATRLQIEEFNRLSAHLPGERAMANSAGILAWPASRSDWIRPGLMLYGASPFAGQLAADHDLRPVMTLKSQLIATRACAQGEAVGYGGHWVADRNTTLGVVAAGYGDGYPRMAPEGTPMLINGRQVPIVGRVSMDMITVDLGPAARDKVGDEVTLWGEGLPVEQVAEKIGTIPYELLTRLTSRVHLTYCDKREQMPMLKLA

Molecule: O=C1C=C2C(=CCOC2O)O1 (centres unmarked) [Compound I-2, Patulin]
- MIC against A.hydrophila Δalr-2 (A. hydrophila Δalr-2): 80(3.96) μg/ml
- inhibition of second-step enzymes / assay interference, in words [1]: weak inhibition
- inhibition of second-step enzymes / assay interference, in words ([1]; listed as patulin): No assay interference
- IC50 against Caco-2 cells (Caco-2 cells): 0.62 µg/mL (≈ 4.02 µM)
- IC50 (alanine racemase Alr-2 [2]): 14.7 µM
- MIC (A. hydrophila): 20 µg/mL (≈ 130 µM)
- growth inhibition of A. hydrophila, in words (A. hydrophila): inhibit the growth of A. hydrophila significantly

Molecule: O=C(O)Cc1cc(O)ccc1O [Compound I-3, Homogentisic acid]
- cytotoxicity, in words (HeLa cells): minimal cytotoxicity
- TC50, cytotoxicity in HeLa cells (HeLa cells): 157.7 μg/ml and 157.7(6.1) μg/ml
- antimicrobial activity against A. hydrophila Δalr-2, in words (A. hydrophila Δalr-2): no antimicrobial activity
- IC50 [1]: 96.1 µM
- inhibition of second-step enzymes / assay interference, in words [1]: No assay interference
- Ki (alanine racemase Alr-2 [3]): 51.7 µM
- type (mode) of inhibition (alanine racemase Alr-2 [3]): competitive type of inhibition
- IC50 (alanine racemase Alr-2 [2]): 12.5 µM
- MIC (A. hydrophila; [4]): 120 µg/mL (≈ 714 µM)
- growth inhibition of A. hydrophila, in words (A. hydrophila): inhibit the growth of A. hydrophila significantly

Molecule: CCCCC1(C)C=CC(=C2C(=O)OC(=CC(=O)O)C2=O)O1 (centres unmarked) [Compound I-4, Acetic acid,[4-(5-butyl-5-methyl-2(5H)-furanylidene)dihydro −3,5-dioxo-2(3H)-furanylidene]-(9CI)]
- IC50 (alanine racemase Alr-2 [2]; [5]): 8.9 µM

- IC50 (alanine racemase Alr-2 [2]; [5]): 8.6 µM
Molecule: CCCOC(=O)c1cc(O)c(O)c(O)c1 [Compound I-5, Propyl Gallate]

Molecule: Oc1ccc(O)cc1 [Compound I-6, Hydroquinone]
- cytotoxicity, in words (HeLa cells): minimal cytotoxicity
- TC50, cytotoxicity in HeLa cells (HeLa cells): 122.9 μg/ml and 122.9(8.9) μg/ml
- MIC against A.hydrophila Δalr-2 (A. hydrophila Δalr-2): 140(2.4) μg/ml
- IC50 [1]: 113 µM
- inhibition of second-step enzymes / assay interference, in words [1]: No assay interference
- Ki (alanine racemase Alr-2 [3]): 212 µM
- type (mode) of inhibition (alanine racemase Alr-2 [3]): noncompetitive inhibitor; also recorded: noncompetitive type of inhibition
- IC50 (alanine racemase Alr-2 [2]): 18.5 µM
- MIC (A. hydrophila; [4]): 80 µg/mL (≈ 727 µM)
- growth inhibition of A. hydrophila, in words (A. hydrophila): inhibit the growth of A. hydrophila significantly

Molecule: O=C(O)CCc1ccccc1Nc1c2ccccc2nc2ccccc12 [Compound I-7, Benzenepropanoic acid,2-(9-acridinylamino)-monohydrochloride]
- IC50 (alanine racemase Alr-2 [2]; [5]): 17.7 µM

Molecule: Oc1cc2c(cc1O)C1c3ccc(O)c(O)c3OCC1(O)C2 (centres unmarked) [Compound I-8, Haematoxylin]
- IC50 (alanine racemase Alr-2 [2]; [5]): 15.6 µM

- IC50 (alanine racemase Alr-2 [2]): 14.3 µM
Molecule: Oc1ccc(CC2NCCc3cc(O)c(O)cc32)cc1 (centres unmarked) [Compound I-9, Higenamine]

Molecule: O=c1c(O)c(-c2ccc(O)c(O)c2)oc2cc(O)cc(O)c12 [Compound I-10, Quercetin]
- IC50 (alanine racemase Alr-2 [2]): 15.5 µM

Molecule: N[C@@H]1CON=C1O [DCS, D-cycloserine, reference compound]
- TC50, cytotoxicity in HeLa cells (HeLa cells): 149.6 μg/ml and 149.6(5.9) μg/ml
- MIC against A.hydrophila Δalr-2 (A. hydrophila Δalr-2): 50(2.9) μg/ml
- IC50 (alanine racemase Alr-2 [2]; [5]): 5.4 µM
- MIC (A. hydrophila; [4]): 25 µg/mL (≈ 245 µM)

Molecule: Anabellamide [Compound I-1]
- IC50 (alanine racemase Alr-2 [2]; [5]): 6.6 µM
